The values that follow are results of earlier work, collected in patent US20260048008A1, “ORGANOGELS FOR SUSTAINED DRUG DELIVERY, METHODS OF PREPARATION AND USE THEREOF” (OCULAR THERAPEUTIX, INC., priority 2022, published 2026).

In the case of `CC(C)OC(=O)CCC/C=C\C[C@@H]1[C@@H](/C=C/[C@@H](O)COc2cccc(C(F)(F)F)c2)[C@H](O)C[C@@H]1O` [Travoprost], the solubility in water result is on record as “practically insoluble in water”.
